Consider 18 compounds from US20250092014A1, “COMPOUNDS AND METHODS OF ACTIVATING LIPOPROTEIN LIPASE” (Metrea Biosciences, Inc., priority 2021, published 2025).

Molecules are shown by their SMILES.

The first test addresses T1, LPL:sGPIHBPI complex (Homo sapiens, UniProt P06858).
T1 sequence (P06858 28-475): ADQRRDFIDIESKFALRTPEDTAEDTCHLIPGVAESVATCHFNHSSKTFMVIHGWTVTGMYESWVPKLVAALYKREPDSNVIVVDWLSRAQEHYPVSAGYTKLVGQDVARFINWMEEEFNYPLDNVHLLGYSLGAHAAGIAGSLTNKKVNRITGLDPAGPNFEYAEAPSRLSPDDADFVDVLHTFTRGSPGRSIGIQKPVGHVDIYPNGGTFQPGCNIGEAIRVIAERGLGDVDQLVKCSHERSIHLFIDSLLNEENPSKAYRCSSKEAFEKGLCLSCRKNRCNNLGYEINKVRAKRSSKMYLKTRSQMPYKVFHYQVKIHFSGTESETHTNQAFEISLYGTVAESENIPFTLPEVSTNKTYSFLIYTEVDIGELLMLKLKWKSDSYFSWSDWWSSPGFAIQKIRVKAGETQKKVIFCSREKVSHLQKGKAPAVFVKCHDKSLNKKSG
T1 sequence (Q8IV16 21-151 partner limits assumed): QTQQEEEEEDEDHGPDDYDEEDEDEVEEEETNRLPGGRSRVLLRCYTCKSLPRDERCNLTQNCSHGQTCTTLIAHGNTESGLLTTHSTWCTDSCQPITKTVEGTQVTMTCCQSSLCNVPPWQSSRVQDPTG
Kind of test: VLDL assay (LPL:sGPIHBP1 pre-incubated with ANGPTL4, VLDL substrate, Amplex Red readout). Format: biochemical. Conditions: read-out: VLDL qAC50. The procedure:
The assay was performed in black I536-well plates using purified proteins. To identify compounds that stimulate LPL activity either by directly activating LPL or by inhibiting the antagonist ANGPTL4, the LPL:sGPIHBPI complex was pre-incubated with ANGPTL4 to decrease LPL activity by 80%. After a 60 min pre-incubation, the coupled enzyme system supplemented with Amplex Red reagent was added. The enzymatic reaction was started by adding the VLDL substrate. 120 min after VLDL addition, the reaction was stopped using SDS and the fluorescence intensity was measured.
40 or 45 nl of compound solution in 100% DMSO were placed in test plate. Then LPL:sGPIHBPI was added to all wells (diluted in assay buffer to 80 nM; 1 μl/well). This was followed by an addition of ANGPTL4 to compounds and neutral controls (diluted in assay buffer to 84 nM; 1 μl/well). The assay buffer was added to stimulator control (1 μl/well). Then the plates were centrifuged and pre-incubated 60 min at RT. A NEFA (1:2 diluted in PBS) supplemented with Amplex Red (40 μM was further added to all wells (1 μl/well). The reaction was then started by adding substrate to all wells (diluted in VLDL buffer to 16 Vg/ml, 1 μl/well). The plates were further centrifuged (800 rpm for 1 my) and incubated 120 m at RT (=reaction time). The reaction was then by adding SDS to all wells (diluted in water to 2.5%, 2 μl/well) and further incubated 30 mi at RT. The fluorescence intensity (ex 540 nm/em 590 nm) was measured on a Pherastar (BMG) using 20 flashes.
Consider `O=C(O)Cc1cccc(Cl)c1NC(=O)c1ccc(N2CCCCC2)c(NC(=O)c2nn(CC(F)(F)F)c3ccccc23)c1` [Compound 25, 2-(3-chloro-2-(4-(piperidin-1-yl)-3-(1-(2,2,2-trifluoroethyl)-1H-indazole-3-carboxamido)benzamido)phenyl) acetic acid], for which the EC50 amounted to 5 µM.
On the same count and under the same terms, as for `O=C(O)Cc1cc(F)ccc1NC(=O)c1ccc(N2CCCCC2)c(NC(=O)c2nn(CC(F)(F)F)c3ccccc23)n1` [Compound 45, 2-(5-fluoro-2-(5-(piperidin-1-yl)-6-(1-(2,2,2-trifluoroethyl)-1H-indazole-3-carboxamido)picolinamido)phenyl)acetic acid], the figure is above 25 µM.
On the same count and under the same terms, as for `O=C(O)Cc1cc(F)ccc1NC(=O)c1ccc(N2CCCCC2)c(NS(=O)(=O)c2nn(CC(F)(F)F)c3ccccc23)c1` [Compound 114, 2-(5-fluoro-2-(4-(piperidin-1-yl)-3-((1-(2,2,2-trifluoroethyl)-1H-indazole)-3-sulfonamido)benzamido)phenyl)acetic acid], the figure is above 25 µM; as for `O=C(O)Cc1cc(F)ccc1NC(=O)c1ccc(N2CCCCC2)c(NC(=O)c2nn(CCN3CCOCC3)c3ccccc23)c1` [Compound 120, 2-(5-fluoro-2-(3-(1-(2-morpholinoethyl)-1H-indazole-3-carboxamido)-4-(piperidin-1-yl)benzamido)phenyl)acetic acid], above 25 µM.
In the case of `Cc1nc(Cn2nc(C(=O)Nc3cc(C(=O)Nc4ccc(F)cc4CC(=O)O)ccc3N3CCCCC3)c3ccccc32)no1` [Compound 125, 2-(5-fluoro-2-(3-(1-((5-methyl-1,2,4-oxadiazol-3-yl)methyl)-1H-indazole-3-carboxamido)-4-(piperidin-1-yl)benzamido)phenyl)acetic acid], the EC50 was determined as 6.4 µM.
Same read-out and setting: as for `O=C(O)Cc1cc(F)ccc1NC(=O)c1ccc(N2CCCCC2)c(NC(=O)Nc2nn(CC(F)(F)F)c3ccccc23)c1` [Compound 129, 2-(5-fluoro-2-(4-(piperidin-1-yl)-3-(3-(1-(2,2,2-trifluoroethyl)-1H-indazol-3-yl)ureido)benzamido)phenyl)acetic acid], the figure is 3.3 µM.
Same read-out and setting: the figure for `O=C(O)Cc1cc(F)ccc1NC(=O)c1ccc(N2CCCCC2)c(NC(=O)c2nn(CC3COCCO3)c3ccccc23)c1` (stereo not drawn) [Compound 132, 2-(2-(3-(1-((1,4-dioxan-2-yl)methyl)-1H-indazole-3-carboxamido)-4-(piperidin-1-yl)benzamido)-5-fluorophenyl)acetic acid] is 7.4 µM.

The next test addresses T2, LPL (native bovine milk protein) inactivated by ANGPTL4 (Bos taurus, UniProt P11151).
T2 construct: from tissue; host or cells: bovine milk (LPL); E. coli (GST-ANGPTL4)
T2 sequence (P11151 29-478): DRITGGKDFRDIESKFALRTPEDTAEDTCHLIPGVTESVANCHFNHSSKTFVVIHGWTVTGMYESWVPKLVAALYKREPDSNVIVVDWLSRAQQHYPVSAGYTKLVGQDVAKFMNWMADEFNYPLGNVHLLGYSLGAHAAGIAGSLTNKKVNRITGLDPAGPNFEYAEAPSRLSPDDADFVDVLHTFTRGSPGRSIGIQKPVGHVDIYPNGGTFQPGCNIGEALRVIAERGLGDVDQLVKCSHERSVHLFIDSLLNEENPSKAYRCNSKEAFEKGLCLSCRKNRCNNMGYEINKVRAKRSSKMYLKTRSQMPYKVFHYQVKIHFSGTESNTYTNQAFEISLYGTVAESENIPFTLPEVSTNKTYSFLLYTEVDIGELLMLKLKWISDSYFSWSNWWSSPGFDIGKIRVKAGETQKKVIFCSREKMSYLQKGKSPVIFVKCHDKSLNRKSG
Kind of test: LPL ANGPTL4 protection assay (LPL fluorescence assay, resorufin butyrate substrate). In kind it is biochemical. Conditions: LPL activation activity, LPL 2.5 nM, ANGPTL4 20 nM. The procedure: LPL is inactivated by angiopoietin-like 4 (ANGPTL4). Compounds of the present disclosure were for activity using the following protection assay. Briefly, the assay was performed in a black opaque 96-well microtiter plate with final volume of 100 μL using a buffer consisting of 50 mM HEPES (pH 7.2), 150 mM NaCl and 0.03% Triton X-100. Compounds were prepared as 10 mM stocks in DMSO, with subsequent serial dilutions performed in DMSO. Two microliters of test compounds were added to the microtiter plate, followed by 49-PL of LPL (native bovine milk protein affinity purified using heparin-affinity chromatography) in assay buffer. The plate contents were mixed using an orbital shaker and allowed to incubate for 5 minutes at room temperature. The enzymatic assay was initiated by the addition of a mixture of 49 μL of 50 μM resorufin butyrate (Santa Cruz #sc-208302; prepared from a 10 mM DMSO stock) and ANGPTL4 (N-terminal GST construct consisting of residues 26-164 expressed in E. coli) in assay buffer. The final concentrations of LPL and ANGPTL4 were 2.5 nM and 20 nM, respectively. The assay was allowed to proceed at 30° C. for 25 minutes with kinetic monitoring (Ex560/Em585) followed by an endpoint reading which was used for analysis.
Data was analyzed in Graphpad Prism (version 6.0, GraphPad Software, Inc., San Diego, CA) using a variable slope four parameter fit of the equation:
Y=Bottom+(Top-Bottom)/(1+10^((Log EC50−X)*HillSlope)),
where X is the concentration of test compound, Y corresponds to the amount of product expressed in relative fluorescence units, and Top and Bottom refer to the plateaus of the curve. Percent activation (protection) of test compound was calculated relative to zero effect wells (ZEW; LPL, ANGPTL4 and substrate) and maximum effect wells (MEW; LPL plus substrate): ((test well−ZEW)/(MEW−ZEW))*100.
Compound `O=C(O)Cc1cc(F)ccc1NC(=O)c1ccc(N2CCCCC2)c(NC(=O)c2nn(Cc3ccccc3)c3ccccc23)c1` [Compound 159, 2-(2-(3-(1-benzyl-1H-indazole-3-carboxamido)-4-(piperidin-1-yl)benzamido)-5-fluorophenyl)acetic acid] registered an EC50 of 0.85 µM.
On the same count and under the same terms, the figure for `CCn1nc(C(=O)Nc2cc(C(=O)Nc3ccc(F)cc3CC(=O)O)ccc2N2CCCCC2)c2ccccc21` [Compound 160, 2-(2-(3-(1-ethyl-1H-indazole-3-carboxamido)-4-(piperidin-1-yl)benzamido)-5-fluorophenyl)acetic acid] is 1.66 µM; for `O=C(O)Cc1ccccc1NC(=O)c1ccc(N2CCCCC2)c(NC(=O)c2cc3n(n2)CCCC3)c1` [Compound 161, 2-(2-(4-(piperidin-1-yl)-3-(4,5,6,7-tetrahydropyrazolo[1,5-a]pyridine-2-carboxamido)benzamido)phenyl)acetic acid] it is 3.2 µM; for `CC(C)n1nc(C(=O)Nc2cc(C(=O)Nc3ccc(F)cc3CC(=O)O)ccc2N2CCCCC2)c2ccccc21` [Compound 162, 2-(5-fluoro-2-(3-(1-isopropyl-1H-indazole-3-carboxamido)-4-(piperidin-1-yl)benzamido)phenyl)acetic acid] it is 3.25 µM.
For the compound `Cn1nc(C(=O)Nc2cc(C(=O)Nc3ccccc3CC(=O)O)ccc2N2CCCCC2)cc1-c1ccccc1` [Compound 163, 2-(2-(3-(1-methyl-5-phenyl-1H-pyrazole-3-carboxamido)-4-(piperidin-1-yl)benzamido)phenyl)acetic acid], the EC50 is 4.13 µM.
On the same count and under the same terms, the figure for `O=C(Nc1ccc(-c2nnn[nH]2)cc1)c1ccc(N2CCCCC2)c(NC(=O)c2nn(CC(F)(F)F)c3ccccc23)c1` [Compound 164, N-(5-((4-(1H-tetrazol-5-yl)phenyl)carbamoyl)-2-(piperidin-1-yl)phenyl)-1-(2,2,2-trifluoroethyl)-1H-indazole-3-carboxamide] is 5.16 µM; for `Cn1nc(C(=O)Nc2cc(C(=O)Nc3ccc(-c4nnn[nH]4)cc3)ccc2N2CCCCC2)c2ccc(F)cc21` [Compound 165, N-(5-((4-(1H-tetrazol-5-yl)phenyl)carbamoyl)-2-(piperidin-1-yl)phenyl)-6-fluoro-1-methyl-1H-indazole-3-carboxamide] it is 7.99 µM; for `Cn1nc(C(=O)Nc2cc(C(=O)Nc3cc(-c4nnn[nH]4)ccc3F)ccc2N2CCCCC2)c2ccccc21` [Compound 166, N-(5-((2-fluoro-5-(1H-tetrazol-5-yl)phenyl)carbamoyl)-2-(piperidin-1-yl)phenyl)-1-methyl-1H-indazole-3-carboxamide] it is 8.1 µM.
Still for that read-out and setting: the figure for `Cc1ccc(NC(=O)c2cc(-n3cc4ccc(-c5nnn[nH]5)cc4n3)ccc2N2CCCCC2)cc1` [Compound 167, 5-(6-(1H-tetrazol-5-yl)-2H-indazol-2-yl)-2-(piperidin-1-yl)-N-(p-tolyl)benzamide] is 9.41 µM; for `Cc1ccc(NC(=O)c2cc(NCc3ccc(-c4nsc(=O)[nH]4)cc3)ccc2N2CCCCC2)cc1` [Compound 168, N-(4-methylphenyl)-5-({[4-(5-oxo-4,5-dihydro-1,2,4-thiadiazol-3-yl)phenyl]methyl}amino)-2-(piperidin-1-yl)benzamide] it is 14.9 µM.
The same measure, in the same setting: as for `Cc1ccc(NC(=O)c2cc(NCc3cc(-c4nnn[nH]4)ccc3F)ccc2N2CCCCC2)cc1` [Compound 169, 5-((2-fluoro-5-(1H-tetrazol-5-yl)benzyl)amino)-2-(piperidin-1-yl)-N-(p-tolyl)benzamide], the figure is 6.38 µM.
